{
  "source": "paper PMC5454592",
  "about": "“Pharmacological and Toxicological Properties of the Potent Oral γ-Secretase Modulator BPN-15606” (The Journal of Pharmacology and Experimental Therapeutics, 2017)",
  "key": {"γ-secretase": {"biological_target": "γ-secretase (Homo sapiens, UniProt P49768)", "assay": "anti-Aβ immunoprecipitation/MALDI-TOF of neuronal cells", "type": "cell-based", "set-up": "endogenous in cells; host or cells: 'neuronal cells' (not specified further)", "conditions": "neuronal cells treated overnight with 100 nM", "description": "All Aβ assays, including the anti-Aβ immunoprecipitation/matrix-assisted laser desorption/ionization time of flight, were carried out as described previously ([Wagner et al., 2014])."}, "HReN-mGAP AD ReN cells [1]": {"test_system": "HReN-mGAP AD ReN cells", "assay": "CytoTox-ONE (lactate dehydrogenase) assay in 3D culture", "type": "cell-based", "conditions": "70 nM; 1-week-old treated media", "description": "(§1) HReN-mGAP AD ReN cell expression APP^Swedish/London and Presenilin 1^ΔE9 were previously described ([Choi et al., 2014]). The HReN-mGAP AD ReN cells were three-dimensional (3D)–differentiated for 7 weeks, as previously described ([Choi et al., 2014]). The cultures were then harvested and analyzed for the soluble (conditioned media) and insoluble Aβ40/42/38 and p-tau/tau levels, using Meso Scale Discovery electrochemiluminescence system. BPN-15606 (70 nM) and the same volume of DMSO controls were treated in the last 4 weeks. The potential toxicity of the drugs was monitored by CytoTox-ONE (lactate dehydrogenase) assay after 1 week of the treatments. At the end of the treatments, the soluble (media) and the insoluble fractions (5 M GuHCl-soluble extracts) were collected and analyzed for Aβ38, Aβ40, and Aβ42 with MSD enzyme-linked immunosorbent assay (ELISA; V-Plex 6E10 Aβ40/Aβ42/Aβ38 kit). The custom-made plates were used for detecting total tau (BT2; ThermoFisher Scientific, Sommerset, NJ) and pThr181 tau (At270; ThermoFisher Scientific, Sommerset, NJ). The insoluble fraction was dissolved in 5 M GuHCl, and pThr181 tau, total tau, Aβ40, Aβ42, and Aβ38 concentrations were determined by MSD ELISA. The levels of the control protein Tuj1 were determined by dot-blot analysis in the GuHCl lysates (data not shown)."}, "in vivo [2]": {"assay": "in vivo", "conditions": "both sexes, cynomolgus monkey, po, repeat dose"}, "HReN-mGAP AD ReN cells [3]": {"test_system": "HReN-mGAP AD ReN cells", "assay": "Three-dimensional human neural cell culture model of AD (MSD ELISA)", "type": "cell-based", "conditions": "70 nM", "description": "as §1"}, "[4]": {"assay": "PK in nonhuman primates (i.v./po)", "type": "in vivo", "conditions": "male, cynomolgus monkey, plasma; cynomolgus monkeys; 2 mg/kg po vs 1 mg/kg i.v.", "description": "Male non-naive cynomolgus monkeys (NHP) were administered BPN-15606 as a single nasogastric (po; 2 mg/kg) or i.v. (1 mg/kg) dose to assess oral bioavailability. Whole-blood samples were collected at specific time points and processed to plasma. Study in-life was conducted at Charles River Laboratories (Reno, NV). Pharmacokinetic (PK) plasma samples were shipped to SRI International for determination of drug concentrations. Samples were analyzed at SRI International using the bioanalytical method described above and validated for NHP plasma, and the LLOQ was 1 ng/ml. Data were subjected to noncompartmental analysis using WinNonlin Phoenix Model 200 (for extravascular administration) or Model 201 (for i.v. bolus administration) and the sparse sampling feature; a uniform weighting factor was applied to each data set. Time to maximum plasma concentration (Tmax) and maximum plasma concentration (Cmax) values were determined directly from the data. Area under the plasma concentration–time curve to the last time point (AUClast) values were calculated using the log/linear trapezoidal (i.v. dose) or linear up/log down trapezoidal (po dose). Values were calculated using the plasma data from composite groups. The dose administered was input to the program as mg/kg, and as a result no additional corrections for individual body weights of the animals were necessary. […]"}, "in vivo [5]": {"assay": "in vivo", "conditions": "rat", "from_the_text": "The objectives of this toxicity study were to determine maximum tolerated dose (MTD), characterize the potential toxicity, and calculate toxicokinetic parameters of BPN-15606 in adult male Sprague–Dawley rats (8–10 weeks of age) following daily po dose administration for 7 consecutive days, and to evaluate its potential to damage chromosomes or cause mitotic spindle abnormalities in vivo, as measured by the incidence of micronucleus formation in RNA-containing erythrocytes (bone marrow micronucleus assay). An overview of the study design is presented in Supplemental Table 8. Male rats were administered BPN-15606 po for 7 consecutive days at 30, 100, or 300 mg/kg (groups 2, 3, and 4). A control group (group 1) was given vehicle, 15% Labrasol/85% sterile water, at an equivalent dose volume (10 ml/kg). A 375 mg/kg dose (group 5) was included for determination of day 1 plasma drug levels. Clinical observations were recorded twice daily.\nAll rats in groups 1, 2, and 3 (0, 30, and 100 mg/kg, respectively) survived until their scheduled day 8 sacrifice, and all tissues specified for histologic evaluation were collected. None of the group 4 (300 mg/kg) animals survived the 7-day dosing period: three were sacrificed in moribund condition, and two were found dead. Necropsy examinations were performed on all rats, but, for group 4 animals, tissues for histopathologic examination were collected only from those rats that were sacrificed in moribund condition. Histopathology assessment was conducted on all tissues collected from all animals in groups 1 and 3, and all tissues collected from group 4 animals euthanized moribund. From group 2 rats, the following tissues were examined histopathologically: duodenum; jejunum; ileum; liver; lung; pancreas; spleen; stomach; and thymus, which were evaluated based on findings at the higher dose levels. When present, grossly altered tissues were examined histopathologically from all group 1, 2, and 3 rats, and from moribund sacrifice group 4 rats. Microscopic data were recorded, and a four-step grading system (minimal, mild, moderate, and marked) was used to define gradable changes. Terminology for data capture was consistent with International Harmonization of Nomenclature and Diagnostic Criteria as promulgated by the Society of Toxicologic Pathology."}, "[6]": {"conditions": "last 4 weeks of 7-week 3D culture, media"}},
  "data": [
    {"smiles": "COc1nc(-c2cc(C)c(N[C@@H](C)c3ccc(F)cc3)nn2)ccc1-n1cnc(C)c1", "note": "[BPN-15606, (S)-N-(1-(4-fluorophenyl)ethyl)-6-(6-methoxy-5-(4-methyl-1H-imidazol-1-yl)pyridin-2-yl)-4-methylpyridazin-3-amine]", "values": [
      {"measurement": "Aβ37 peak (IP/MALDI-TOF)", "setting": "γ-secretase", "value": "significantly increased"},
      {"measurement": "Aβ38 peak (IP/MALDI-TOF)", "setting": "γ-secretase", "value": "significantly increased"},
      {"measurement": "Aβ40 peak (IP/MALDI-TOF)", "setting": "γ-secretase", "value": "significantly reduce"},
      {"measurement": "Aβ42 peak (IP/MALDI-TOF)", "setting": "γ-secretase", "value": "completely eliminate the peak"},
      {"measurement": "toxicity (Cytotox cell death lactate dehydrogenase assay)", "setting": "HReN-mGAP AD ReN cells [1]", "value": "did not induce any significant toxicity"},
      {"measurement": "MTD at 6 days", "setting": "in vivo [2]", "value": "< 300", "unit": "mg/kg/day"},
      {"measurement": "soluble Aβ38 level", "setting": "HReN-mGAP AD ReN cells [3]; [6]", "value": "increasing"},
      {"measurement": "soluble Aβ40 level", "setting": "HReN-mGAP AD ReN cells [3]; [6]", "value": "dramatically decreased"},
      {"measurement": "soluble Aβ42/40 ratio", "setting": "HReN-mGAP AD ReN cells [3]; [6]", "value": "dramatically decreased"},
      {"measurement": "soluble Aβ42 level", "setting": "HReN-mGAP AD ReN cells [3]; [6]", "value": "dramatically decreased"},
      {"measurement": "insoluble Aβ40 level", "setting": "HReN-mGAP AD ReN cells [3]; 5 M GuHCl-soluble extracts", "value": "decreased"},
      {"measurement": "insoluble Aβ42 level", "setting": "HReN-mGAP AD ReN cells [3]; 5 M GuHCl-soluble extracts", "value": "decreased"},
      {"measurement": "insoluble pThr181 tau level", "setting": "HReN-mGAP AD ReN cells [3]; 5 M GuHCl-soluble extracts", "value": "decreased"},
      {"measurement": "insoluble total tau level", "setting": "HReN-mGAP AD ReN cells [3]; 5 M GuHCl-soluble extracts", "value": "decreased"},
      {"measurement": "bioavailability", "setting": "[4]", "value": 30.8, "unit": "%"},
      {"measurement": "MTD at 7 days", "setting": "in vivo [5]; male, Sprague-Dawley", "value": "~100", "unit": "mg/kg"},
      {"measurement": "mortality", "setting": "in vivo [5]; male, Sprague-Dawley, 300 mg/kg, 7 days", "value": "either found dead or sacrificed in moribund condition on day 3 or 4"},
      {"measurement": "NOEL", "setting": "in vivo [5]; male, Sprague-Dawley, 7 days", "value": "≥ 30", "unit": "mg/kg"},
      {"measurement": "MTD at 7 days", "setting": "in vivo [5]; male, Sprague-Dawley, po", "value": "~100", "unit": "mg/kg/day"},
      {"measurement": "no-observed-effect level (NOEL)", "setting": "in vivo [5]; male, Sprague-Dawley, po, 7 days", "value": 30, "unit": "mg/kg/day"},
      {"measurement": "absolute number and percent of reticulocytes, of the control values", "setting": "in vivo [5]; 100 mg/kg", "value": "about 20%"},
      {"measurement": "decrease in mean corpuscular hemoglobin", "setting": "in vivo [5]; 100 mg/kg", "value": 6.9, "unit": "%"},
      {"measurement": "increase in RBC", "setting": "in vivo [5]; 100 mg/kg", "value": 10.5, "unit": "%"},
      {"measurement": "increase in hemoglobin", "setting": "in vivo [5]; 100 mg/kg", "value": 10.9, "unit": "%"},
      {"measurement": "liver histopathology", "setting": "in vivo [5]; 300 mg/kg", "value": "Hepatocyte basophilia, hypertrophy, and lipidosis"},
      {"measurement": "clinical observations", "setting": "in vivo [5]; po, 30 mg/kg", "value": "appeared normal throughout the treatment period"}
    ]}
  ]
}
